In PubChem BioAssay (NCI):
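Grown in 96-well plates, cells were treated for 48 hours with each compound at five concentrations. Insufficient inhibition: endpoint recorded as highest concentration tested. GI50 marks 50% less growth. TGI: total growth inhibition.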

Assays:
Assay in all cases: inhibition of tumour cell growth, NCI panel, 48 h
[1] = system: ACHN renal
[2] = system: TK-10 renal
[3] = system: OVCAR-4 ovarian
[4] = system: SK-MEL-2 melanoma
[5] = system: SNB-75 CNS
[6] = system: SN12C renal
[7] = system: SF-295 CNS
[8] = system: EKVX NSCLC
[9] = system: SW-620 colon
[10] = system: NCI/ADR-RES ovarian
[11] = system: SNB-19 CNS
[12] = system: MCF7 breast
[13] = system: IGROV1 ovarian
[14] = system: M14 melanoma
[15] = system: DU-145 prostate
[16] = system: KM12 colon
[17] = system: UO-31 renal
[18] = system: K-562 leukemia
[19] = system: SK-MEL-5 melanoma
[20] = system: NCI-H226 lung
[21] = system: HOP-92 NSCLC
[22] = system: OVCAR-5 ovarian
[23] = system: MDA-MB-231 breast
[24] = system: RXF 393 renal
[25] = system: U251 CNS
[26] = system: A498 renal
[27] = system: HT29 colon
[28] = system: NCI-H23 lung
[29] = system: RPMI-8226 leukemia
[30] = system: MOLT-4 leukemia
[31] = system: COLO 205 colon
[32] = system: MDA-MB-435
[33] = system: BT-549 breast
[34] = system: OVCAR-3 ovarian
[35] = system: NCI-H522 lung
[36] = system: MALME-3M melanoma
[37] = system: UACC-62 melanoma
[38] = system: HCT-116 colon
[39] = system: HCT-15 colon
[40] = system: SK-MEL-28 melanoma
[41] = system: NCI-H460 lung
[42] = system: SK-OV-3 ovarian
[43] = system: 786-0 renal
[44] = system: A549 NSCLC
[45] = system: HCC-2998 colon
[46] = system: UACC-257 melanoma
[47] = system: PC-3 prostate
[48] = system: SF-268 CNS
[49] = system: CCRF-CEM leukemia
[50] = system: SF-539 CNS
[51] = system: HOP-62 NSCLC
[52] = system: HL-60(TB) leukemia
[53] = system: OVCAR-8 ovarian
[54] = system: CAKI-1 renal
[55] = system: T-47D breast
[56] = system: SR leukemia

Compound: O=[N+]([O-])c1ccc(OCc2nnc(CCCCCCCCc3nnc(COc4ccc([N+](=O)[O-])cc4)o3)o2)cc1
- TGI [1]: > 100000 nM
- TGI [2]: > 100 µM
- TGI [3]: > 100 µM
- TGI [4]: > 100 µM
- TGI [5]: > 100 µM
- TGI [6]: > 100 µM
- TGI [7]: > 100 µM
- TGI [8]: > 100 µM
- TGI [9]: > 100 µM
- TGI [10]: > 100 µM
- TGI [11]: > 100 µM
- TGI [12]: > 100000 nM
- TGI [13]: > 100 µM
- TGI [14]: > 100000 nM
- TGI [15]: > 100 µM
- TGI [16]: > 100 µM
- TGI [17]: > 100 µM
- TGI [18]: > 100 µM
- TGI [19]: > 100 µM
- TGI [20]: > 100 µM
- TGI [21]: > 100 µM
- TGI [22]: > 100 µM
- TGI [23]: > 100 µM
- TGI [24]: 83.3 µM
- TGI [25]: > 100 µM
- TGI [26]: > 100 µM
- TGI [27]: > 100000 nM
- TGI [28]: > 100 µM
- TGI [29]: > 100 µM
- TGI [30]: > 100 µM
- TGI [31]: > 100 µM
- TGI [32]: > 100 µM
- TGI [33]: > 100 µM
- TGI [34]: > 100 µM
- TGI [35]: > 100 µM
- TGI [36]: > 100 µM
- TGI [37]: > 100 µM
- TGI [38]: > 100 µM
- TGI [39]: > 100 µM
- TGI [40]: > 100 µM
- TGI [41]: > 100 µM
- TGI [42]: > 100 µM
- TGI [43]: > 100 µM
- TGI [44]: > 100 µM
- TGI [45]: > 100 µM
- TGI [46]: > 100 µM
- TGI [47]: > 100 µM
- TGI [48]: > 100 µM

Compound: COc1ccc2[nH]c3c(C)c4ccnc(NCCCN(C)CCCNc5ccc([N+](=O)[O-])c6[nH]c7ccccc7c(=O)c56)c4c(C)c3c2c1
- TGI [1]: 648 nM
- TGI [4]: 1.46 µM
- TGI [49]: 4.12 µM
- TGI [8]: 0.964 µM
- TGI [50]: 0.726 µM
- TGI [11]: 1.42 µM
- TGI [12]: 95.4 nM
- TGI [13]: 0.755 µM
- TGI [14]: 988 nM
- TGI [15]: 1.27 µM
- TGI [16]: 1.43 µM
- TGI [17]: 2.21 µM
- TGI [18]: 4.41 µM
- TGI [22]: 1.26 µM
- TGI [51]: 1.06 µM
- TGI [23]: 1.81 µM
- TGI [27]: 107 nM
- TGI [29]: 50 µM
- TGI [30]: 0.989 µM
- TGI [52]: 50 µM
- TGI [53]: 1110 nM
- TGI [34]: 1.2 µM
- TGI [35]: 0.822 µM
- TGI [39]: 0.68 µM
- TGI [41]: 0.0678 µM
- TGI [44]: 0.0783 µM
- TGI [45]: 0.568 µM
- TGI [47]: 1.21 µM

Compound: CCCN1CCN(c2ccc3nc(-c4ccc5nc(-c6ccc(C(F)(F)F)cc6)[nH]c5c4)[nH]c3c2)CC1
- GI50 [1]: 1600 nM
- TGI [1]: 2960 nM
- GI50 [3]: 1750 nM
- TGI [3]: 3.44 µM
- GI50 [4]: 1920 nM
- TGI [4]: 3.58 µM
- GI50 [5]: 1500 nM
- TGI [5]: 2.93 µM
- GI50 [7]: 1660 nM
- TGI [7]: 3.1 µM
- GI50 [8]: 1870 nM
- TGI [8]: 3.33 µM
- GI50 [10]: 6.46 µM
- TGI [10]: > 100 µM
- GI50 [50]: 1770 nM
- TGI [50]: 3.2 µM
- GI50 [14]: 1480 nM
- TGI [14]: 2880 nM
- GI50 [15]: 1900 nM
- TGI [15]: 3.36 µM
- GI50 [16]: 1780 nM
- TGI [16]: 3.32 µM
- GI50 [19]: 1770 nM
- TGI [19]: 3.48 µM
- GI50 [22]: 1930 nM
- TGI [22]: 3.36 µM
- GI50 [51]: 1560 nM
- TGI [51]: 3.15 µM
- GI50 [23]: 1980 nM
- TGI [23]: 3.52 µM
- GI50 [26]: 1870 nM
- TGI [26]: 3.77 µM
- GI50 [28]: 1710 nM
- TGI [28]: 3.22 µM
- GI50 [30]: 1870 nM
- TGI [30]: 3.62 µM
- GI50 [31]: 1520 nM
- TGI [31]: 3.24 µM
- GI50 [32]: 1860 nM
- TGI [32]: 3.47 µM
- GI50 [52]: 2000 nM
- TGI [52]: 3.76 µM
- GI50 [33]: 1750 nM
- TGI [33]: 3.2 µM
- GI50 [34]: 1650 nM
- TGI [34]: 3.07 µM
- GI50 [36]: 1350 nM
- TGI [36]: 2.77 µM
- GI50 [37]: 1660 nM
- TGI [37]: 3.23 µM
- GI50 [38]: 1380 nM
- TGI [38]: 2.71 µM
- GI50 [40]: 1780 nM
- TGI [40]: 3.25 µM
- GI50 [43]: 1780 nM
- TGI [43]: 3.27 µM
- GI50 [54]: 1760 nM
- TGI [54]: 3.2 µM
- GI50 [45]: 1890 nM
- TGI [45]: 3.46 µM
- GI50 [46]: 1850 nM
- TGI [46]: 3.57 µM
- GI50 [48]: 1880 nM
- TGI [48]: 3.56 µM

Compound: N#Cc1c(-c2ccc(Cl)cc2)cc(-c2ccc(Nc3ccnc4cc(Cl)ccc34)cc2)nc1N
- TGI [1]: > 100000 nM
- TGI [2]: > 100 µM
- TGI [3]: > 100 µM
- TGI [4]: > 100 µM
- TGI [5]: > 100 µM
- TGI [7]: > 100 µM
- TGI [8]: > 100 µM
- TGI [9]: > 100 µM
- TGI [10]: > 100 µM
- TGI [50]: > 100 µM
- TGI [11]: > 100 µM
- TGI [13]: > 100 µM
- TGI [14]: > 100000 nM
- TGI [15]: > 100 µM
- TGI [16]: > 100 µM
- TGI [17]: > 100 µM
- TGI [18]: > 100 µM
- TGI [20]: > 100 µM
- TGI [55]: > 100 µM
- TGI [21]: > 100 µM
- TGI [22]: > 100 µM
- TGI [51]: > 100 µM
- TGI [23]: > 100 µM
- TGI [24]: > 100 µM
- TGI [25]: > 100 µM
- TGI [26]: > 100 µM
- TGI [28]: > 100 µM
- TGI [29]: > 100 µM
- TGI [31]: > 100 µM
- TGI [32]: > 100 µM
- TGI [52]: > 100 µM
- TGI [56]: > 100 µM
- TGI [33]: > 100 µM
- TGI [53]: > 100000 nM
- TGI [34]: > 100 µM
- TGI [35]: > 100 µM
- TGI [36]: > 100 µM
- TGI [37]: > 100 µM
- TGI [38]: > 100 µM
- TGI [39]: > 100 µM
- TGI [40]: > 100 µM
- TGI [41]: > 100 µM
- TGI [42]: > 100 µM
- TGI [43]: > 100 µM
- TGI [54]: > 100 µM
- TGI [44]: > 100 µM
- TGI [45]: > 100 µM
- TGI [47]: > 100 µM
- TGI [48]: > 100 µM
